In publication PMC10073126, “Levosimendan inhibits disulfide tau oligomerization and ameliorates tau pathology in Tau^P301L-BiFC mice” (Experimental & Molecular Medicine, 2023):

Legend:
[1] = target: T1, tauK18 (Homo sapiens, UniProt P10636); experiment: TauK18 oligomerization assay in vitro (SDS-PAGE); assay type: biochemical; conditions: 5 h, nonreducing SDS-PAGE, DMSO control 50 ± 1.1%
T1 construct: under in vitro conditions using a purified tauK18 fragment; 6xHis; made in house; host or cells: E. coli BL21 (DE3)
Procedure: To induce tau oligomerization, tauK18 (0.5 mg/mL dissolved in PBS, pH 7.4) was incubated with each drug in the presence of DTT (100 μM) and heparin (0.1 mg/mL) at RT for 5 h with vigorous shaking. Then, tau oligomers were separated on 4–20% SDS‒PAGE gels under reducing and nonreducing conditions and visualized by Coomassie blue staining.

[2] = target: T1, tauK18; experiment: In vitro tau disaggregation assay (thioflavin S); assay type: biochemical; conditions: preformed tauK18 aggregates, 4 days; read-out: EC50, tau disaggregation (ThS)
Procedure: To evaluate the inhibitory effect of drugs on tau aggregation, tauK18 protein (0.5 mg/mL) was incubated with each drug at various concentrations in the presence of DTT (100 μM) and heparin (0.1 mg/mL) at 37 °C for 5 days with vigorous shaking (220 rpm). For the tau disaggregation assay, the preformed aggregation mixture of tauK18 was incubated with each drug at 37 °C for 4 days with vigorous shaking (220 rpm). On the final day of incubation, the level of β-sheet aggregates was evaluated by thioflavin S (ThS) assay. For the ThS assay, 5 μL of each mixture was transferred to a black 384-well plate with 45 μL of PBS containing 10 μM ThS. ThS fluorescence (λex = 430 nm, and λem = 500 nm) was measured by using a Flexstation2 spectrophotometer (Molecular Devices).

[3] = tested on: Tau^P301L-BiFC mice; experiment: Novel object recognition test; assay type: in vivo, mouse; conditions: 5 mg/kg i.p., three times a week, 4 months; vehicle TG 0.49, WT 0.74
Procedure: (§1) For drug administration, LMTM and levosimendan were dissolved in PBS containing 40% polyethylene glycol (PEG; Sigma). Nine-month-old Tau^P301L-BiFC mice were intraperitoneally administered each drug for 4 months, three times a week, at a dosage of 5 mg/kg (n = 11 per group). Vehicle-treated Tau^P301L-BiFC mice and age-matched wild-type mice were used as control groups. Behavioral assessments were conducted as described below for one month from the end of drug administration. All mice were sacrificed at the age of 14 months for pathological analysis.
The novel object recognition test was performed as described previously. Briefly, for habituation, mice (n = 9 per group) were individually placed in the center of an open field arena (40 × 40 cm) and could freely explore for 15 min. The next day, in the training trial (familiarization phase), the mice could explore two identical objects in the open field for 10 min. […] The exploration time for the familiar (old) or the new (novel) object during the recognition phase was recorded using a Noldus EthoVision XT video tracking system. Memory was operationally defined by the recognition index calculated by dividing the time an animal spent exploring the novel object or old object by the total time spent exploring objects in the testing period. The exploration time was measured when the mouse pointed toward the object in the vicinity of the object.

[4] = tested on: Tau^P301L-BiFC mice; experiment: Y-maze test; assay type: in vivo, mouse; conditions: 5 mg/kg i.p., three times a week, 4 months; vehicle TG 52.8 ± 2.6%
Procedure: as §1
Mice (n = 11 per group) were tested for spontaneous alternation behavior in a Y-shaped maze (60 cm in length of each arm, 20 cm in depth) using a standard protocol. Spontaneous alternation for 8 min was calculated as the proportion of alternations. Alteration (%) was defined as consecutive entries in three different arms (ABCs) divided by the number of possible alterations (total arm entries minus 2)[43].

[5] = tested on: Tau^P301L-BiFC mice; experiment: BiFC fluorescence imaging of brain tissue sections; assay type: in vivo, mouse; conditions: 5 mg/kg i.p., 4 months; for Tau-BiFC intensity in the hippocampus compared to vehicle-treated group: hippocampal CA1; for Tau-BiFC intensity in the cortex compared to vehicle-treated group: somatosensory cortex layer V
Procedure: as §1
Brain tissue sections (n = 8 per group) were mounted onto slides. To reduce autofluorescence, brain tissue sections were stained with Sudan Black B solution (70% ethanol containing 0.05% Sudan Black B) for 10 min, washed three times with PBS containing 0.1% Triton X-100 (Sigma), and then washed with distilled water. For counterstaining of nuclei, brain tissues were stained with Hoechst (0.5 μg/mL) for 30 min. BiFC fluorescence (λex = 460–490 nm and λem = 500–550 nm) images were acquired using Axio Scan. Z1 (ZEISS). For quantitative analysis, the mean BiFC fluorescence intensity was measured in the somatosensory cortex (layer V) and hippocampal CA1 from AP;−1.82. To normalize the background fluorescence between the brain samples, the habenular region was used as an internal control. Using ImageJ software (NIH), the region of interest was masked, and the fluorescence intensity value was calculated. Data are shown as the average and standard deviation of the mean fluorescence intensities of brain images from six to eight animals.

[6] = tested on: Tau^P301L-BiFC mice; experiment: AT8 immunofluorescence of brain tissue slices; assay type: in vivo, mouse; conditions: 5 mg/kg i.p., 4 months
Procedure: as §1
For immunofluorescence image analysis, brain tissue slices (n = 6–8 per group) were stained with AT8 (pS202/T205) antibody (1:200, Invitrogen). The primary antibody was detected using Alexa Flour 633-conjugated anti-mouse antibody (1:500, Abcam). Fluorescence images (λex = 620–640 nm and λem = 650–700 nm) were acquired using Axio Scan. Z1 (ZEISS).

[7] = 1H NMR of reaction with N-acetyl-L-cysteine methyl ester; conditions: room temperature
Procedure: NMR analysis was performed at 25 °C and recorded in δ units relative to deuterated solvent as an internal reference using a 400 MHz NMR instrument (Bruker). Deuterated phosphate-buffered saline (d-PBS) was prepared at a concentration of 50 mM (D2O + H2O, 1:1, v/v). Levosimendan (50 mg, […], 1 equivalent) reacted with N-acetyl-L-cysteine methyl ester (38 mg, […], 1.2 equivalent) in 10 mL of d-PBS/DMSO-d6 (1:1, v/v) at room temperature, and the reaction was checked at various time points. For the reversibility study, the reaction mixture was diluted ten times with d-PBS/DMSO-d6 (1:1, v/v) and monitored at room temperature.

[8] = parameters: method as in PMID 15489122; conditions: in humans; cited from earlier work

T1 sequence (P10636 561-685 limits assumed): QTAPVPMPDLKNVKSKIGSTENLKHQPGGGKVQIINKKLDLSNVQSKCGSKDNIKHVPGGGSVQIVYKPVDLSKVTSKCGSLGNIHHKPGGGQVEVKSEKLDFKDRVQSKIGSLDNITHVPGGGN

CN(C)c1ccc2c(c1)Sc1cc(N(C)C)ccc1N2.CS(=O)(=O)O.CS(=O)(=O)O [LMTM, leucomethylene blue mesylate]
Level of disulfide-linked tau oligomers (of total tau) ([1]; 100 μM): 79.2 ± 0.8%
EC50 [2]: 3.4 ± 0.2 µM
Recognition index (RI) for a novel object [3]: 0.59
Percent alternation [4]: 68.9 ± 3.5%
Tau-BiFC intensity in the hippocampus compared to vehicle-treated group [5]: 0.6 ± 0.1 fold
Tau-BiFC intensity in the cortex compared to vehicle-treated group [5]: 0.7 ± 0.2 fold
AT8 immunoreactivity in the cortex compared to vehicle-treated group [6]: 0.6 ± 0.2 fold
AT8 immunoreactivity in the hippocampus compared to vehicle-treated group [6]: 0.5 ± 0.2 fold

C[C@@H]1CC(=O)NN=C1c1ccc(NN=C(C#N)C#N)cc1 [Levosimendan]
Level of disulfide-linked tau oligomers (of total tau) ([1]; 10 μM): 15.0 ± 6.0%
Level of disulfide-linked tau oligomers (of total tau) ([1]; 30 μM): 15.7 ± 7.8%
Level of disulfide-linked tau oligomers (of total tau) ([1]; 100 μM): 12.3 ± 15.0%
EC50 [2]: 3.7 ± 0.2 µM
Time to almost complete restoration of levosimendan upon ten-fold dilution ([7]; reaction mixture diluted ten times): 5 days
Time to complete formation of the levosimendan-cysteine conjugate ([7]; with N-acetyl-L-cysteine methyl ester): ≤ 2 h
Recognition index (RI) for a novel object [3]: 0.69
Percent alternation [4]: 70.4 ± 4.2%
Tau-BiFC intensity in the hippocampus compared to vehicle-treated group [5]: 0.4 ± 0.2 fold
Tau-BiFC intensity in the cortex compared to vehicle-treated group [5]: 0.6 ± 01 fold
AT8 immunoreactivity in the cortex compared to vehicle-treated group [6]: 0.4 ± 0.1 fold
AT8 immunoreactivity in the hippocampus compared to vehicle-treated group [6]: 0.4 ± 0.2 fold
Portion of levosimendan metabolized to OR-1855 and OR-1896 [8]: 5%
